Laboratory results reported in ChEMBL document CHEMBL4706517, “Discovery of novel berberine derivatives with balanced cholinesterase and prolyl oligopeptidase inhibition profile” (Eur J Med Chem, 2020).
Active and inactive are the calls of the source. The calls are words filed in the database; no cut-off is given here.

Assays:
[1] = biological target: T1, Acetylcholinesterase (Homo sapiens, UniProt P22303); assay: Inhibition of recombinant human acetylcholinesterase using acetylthiocholine iodide as substrate preincubated with enzyme for 5 mins followed by substrate addition and measured at 2 mins interval by Ellman's method
T1 sequence (P22303 whole entry): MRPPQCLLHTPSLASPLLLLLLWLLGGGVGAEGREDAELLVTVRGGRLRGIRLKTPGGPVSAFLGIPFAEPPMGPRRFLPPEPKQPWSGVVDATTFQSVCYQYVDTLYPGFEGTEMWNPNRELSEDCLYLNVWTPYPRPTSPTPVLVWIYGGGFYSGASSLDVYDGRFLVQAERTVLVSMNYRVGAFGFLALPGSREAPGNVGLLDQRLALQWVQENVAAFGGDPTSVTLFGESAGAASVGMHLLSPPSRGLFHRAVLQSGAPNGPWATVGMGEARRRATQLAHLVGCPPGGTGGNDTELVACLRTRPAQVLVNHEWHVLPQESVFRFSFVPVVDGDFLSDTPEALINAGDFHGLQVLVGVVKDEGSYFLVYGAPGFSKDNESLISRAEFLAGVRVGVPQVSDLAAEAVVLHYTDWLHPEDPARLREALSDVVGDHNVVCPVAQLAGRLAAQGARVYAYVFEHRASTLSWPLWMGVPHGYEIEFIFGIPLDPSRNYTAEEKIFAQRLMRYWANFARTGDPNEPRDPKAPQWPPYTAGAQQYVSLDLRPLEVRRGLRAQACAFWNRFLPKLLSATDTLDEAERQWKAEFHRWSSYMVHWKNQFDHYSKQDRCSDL

[2] = biological target: T2, Prolyl endopeptidase (Homo sapiens, UniProt P48147)
T2 sequence (P48147 whole entry): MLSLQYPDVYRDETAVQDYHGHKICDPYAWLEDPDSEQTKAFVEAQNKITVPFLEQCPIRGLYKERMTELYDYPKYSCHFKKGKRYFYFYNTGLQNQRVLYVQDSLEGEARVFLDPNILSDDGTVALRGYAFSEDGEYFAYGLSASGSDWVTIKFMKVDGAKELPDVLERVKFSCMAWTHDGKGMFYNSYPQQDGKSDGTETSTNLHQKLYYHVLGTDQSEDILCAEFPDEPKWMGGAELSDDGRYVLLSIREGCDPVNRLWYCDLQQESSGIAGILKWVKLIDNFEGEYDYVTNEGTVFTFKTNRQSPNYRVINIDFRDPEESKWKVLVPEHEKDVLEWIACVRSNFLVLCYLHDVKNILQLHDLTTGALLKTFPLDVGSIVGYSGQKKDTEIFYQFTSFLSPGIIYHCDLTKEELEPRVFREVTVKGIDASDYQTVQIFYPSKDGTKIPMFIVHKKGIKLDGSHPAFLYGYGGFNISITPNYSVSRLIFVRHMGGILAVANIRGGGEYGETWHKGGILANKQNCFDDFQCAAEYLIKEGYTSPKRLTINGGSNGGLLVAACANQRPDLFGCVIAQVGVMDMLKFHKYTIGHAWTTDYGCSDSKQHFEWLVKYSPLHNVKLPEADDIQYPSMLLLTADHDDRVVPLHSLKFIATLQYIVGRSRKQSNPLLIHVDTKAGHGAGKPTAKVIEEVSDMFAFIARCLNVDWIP
Description: Inhibition of recombinant human Prolyl oligopeptidase expressed in Escherichia coli expression system using (Z)-Gly-Pro-p-nitroanilide as substrate preincubated with enzyme for 5 mins followed by substrate addition and measured for 30 mins by spectrophotometric analysis

[3] = system: CHO-K1; assay: Cytotoxicity against CHO-K1 cells assessed as reduction in cell viability measured after 24 hrs by MTT assay; format: cell-based, Cricetulus griseus
[4] = Antioxidant activity assessed as radical scavenging activity measured after 30 mins by microplate reader based DPPH assay; format: functional
[5] = Antioxidant activity assessed as radical scavenging activity incubated for 20 mins by DPPH assay based UV spectrophotometer analysis; format: functional
[6] = Inhibition of HFIP-pretreated Tau (306 to 336) (unknown origin) self-aggregation at 25 uM measured at interval of 10 mins for overnight with 1 min shaking by thioflavin-T fluorescence method; details: Homo sapiens
[7] = in vitro; details: PAMPA, pH 7.4
Description: Permeability of the compound at pH 7.4 measured after 6 hrs by PAMPA method

[8] = biological target: T1, Acetylcholinesterase; assay: Noncompetitive inhibition of human acetylcholinesterase assessed as affinity towards free enzyme using acetylthiocholine iodide as substrate measured by Ellman's method based Lineweaver-Burk plot analysis
[9] = biological target: T1, Acetylcholinesterase; assay: Noncompetitive inhibition of human acetylcholinesterase assessed as decrease in apparent Vmax with unchanged Km using acetylthiocholine iodide as substrate by Lineweaver-Burk plot analysis
[10] = Cricetulus griseus, CHO-K1, 24 h, read-out: IC50

Row | Structure (SMILES) | IC50 [1] [µM] | IC50 [2] [µM] | IC50 [3, 10] [µM] | EC50 [4] [µM] | EC50 [5] [µM] | inhibition [6] [%] | Papp at 6 h [7] [×10⁻⁶ cm/s] | Ki [8] [µM] | inhibition [9] | IC50 ([3]; cho-k1)
1 | COc1ccc2cc3[n+](cc2c1OCc1ccc(C#N)cc1)CCc1cc2c(cc1-3)OCO2 | 1.7 | 36.5 | 292 | > 6000 | – | – | – | – | – | –
2 | COc1ccc2cc3[n+](cc2c1O)CCc1cc2c(cc1-3)OCO2 [BERBERRUBINE CHLORIDE] | – | – | – | – | 87 | – | – | – | – | –
3 | COc1ccc2cc3[n+](cc2c1OCc1cccc(Cl)c1)CCc1cc2c(cc1-3)OCO2 | 1.9 | 67 | 30 | 5400 | – | – | – | – | – | –
4 | C[C@H]1c2cccc(O)c2C(=O)C2=C(O)[C@]3(O)C(=O)C(C(N)=O)=C(O)[C@@H](N(C)C)[C@@H]3[C@@H](O)[C@@H]21 | – | – | – | – | – | 39.6 | – | – | – | –
5 | COc1ccc2cc3[n+](cc2c1OCc1ccccc1C)CCc1cc2c(cc1-3)OCO2 | 10.4 | 71.1 | 55 | 1200 | – | – | – | – | – | –
6 | Cc1c(C)c2c(c(C)c1O)CCC(C)(C(=O)O)O2 (configuration not stated) [TROLOX] | – | – | – | 16.2 | – | – | – | – | – | –
7 | COc1ccc2cc3[n+](cc2c1OC)CCc1cc2c(cc1-3)OCO2.[Cl-] [BERBERINE CHLORIDE] | – | – | 336 | 5500 | – | 25 | 0.2 | – | – | –
8 | COc1ccc2cc3[n+](cc2c1OCc1cccc(C)c1)CCc1cc2c(cc1-3)OCO2 | 7.3 | 79.1 | 58 | 1200 | – | – | – | – | – | –
9 | CC(=O)N[C@@H](CS)C(=O)O [ACETYLCYSTEINE] | – | – | – | 27.9 | – | – | – | – | – | –
10 | COc1ccc2cc3[n+](cc2c1OCc1ccc(C(C)C)cc1)CCc1cc2c(cc1-3)OCO2 | 4.2 | 53.3 | 17 | 1300 | – | – | – | – | – | –
11 | COc1ccc2cc3[n+](cc2c1OCc1ccc(SC)cc1)CCc1cc2c(cc1-3)OCO2 | 2.6 | 34 | 43 | > 6000 | – | – | – | – | – | –
12 | COc1ccc2cc3[n+](cc2c1OCc1ccc(Br)cc1)CCc1cc2c(cc1-3)OCO2.[Br-] | 3.3 | 19.4 | 48 | > 6000 | – | – | 0.6 | – | – | –
13 | COc1ccc2cc3[n+](cc2c1OCc1ccc(Cl)cc1)CCc1cc2c(cc1-3)OCO2 | 2.5 | 39.4 | 13 | 5200 | – | – | – | – | – | –
14 | Nc1c2c(nc3ccccc13)CCCC2 [TACRINE] | – | – | – | – | – | – | 6 | – | – | –
15 | COc1ccc2cc3[n+](cc2c1OCc1ccc(C)cc1)CCc1cc2c(cc1-3)OCO2.[Br-] | 75.8 | 10.7 | 43 | 1900 | – | 31.9 | 0.8 | – | – | –
16 | COc1ccc2cc3[n+](cc2c1OC(C)c1ccccc1)CCc1cc2c(cc1-3)OCO2.[Br-] (configuration not stated) | 0.79 | 29.5 | 42 | 5600 | – | 38.3 | 0.4 | – | – | –
17 | COc1ccc2cc3[n+](cc2c1OCc1ccccc1)CCc1cc2c(cc1-3)OCO2.[Br-] | 5 | 25.4 | 55 | 1900 | – | – | 0.4 | – | – | –
18 | COc1ccc2cc3[n+](cc2c1OCc1cc(C)cc(C)c1)CCc1cc2c(cc1-3)OCO2 | 2.5 | 58.7 | 23 | 990 | – | – | – | – | – | –
19 | COc1ccc2cc3[n+](cc2c1OCc1ccccc1Br)CCc1cc2c(cc1-3)OCO2 | 1.7 | 38.9 | 26 | > 6000 | – | – | – | – | – | –
20 | COc1ccc2cc3[n+](cc2c1OCc1ccc2ccccc2c1)CCc1cc2c(cc1-3)OCO2.[Br-] | 1.5 | 28.5 | 14 | > 6000 | – | 62 | 0.8 | – | – | –
21 | COc1ccc2cc3[n+](cc2c1OCc1cccc(Br)c1)CCc1cc2c(cc1-3)OCO2 | 2.7 | 59.6 | 32 | 2200 | – | – | – | – | – | –
22 | CO/N=C(\C(=O)N[C@@H]1C(=O)N2C(C(=O)O)=C(COC(N)=O)CS[C@H]12)c1ccco1 [CEFUROXIME] | – | – | – | – | – | – | 0.3 | – | – | –
23 | COc1ccc(COc2c(OC)ccc3cc4[n+](cc23)CCc2cc3c(cc2-4)OCO3)cc1.[Br-] | 5.3 | 40.5 | 42 | > 6000 | – | – | 4.8 | – | – | –
24 | COc1cccc(COc2c(OC)ccc3cc4[n+](cc23)CCc2cc3c(cc2-4)OCO3)c1 | 3.5 | 40.4 | 46 | 5300 | – | – | – | – | – | –
25 | COC(=O)c1ccc(COc2c(OC)ccc3cc4[n+](cc23)CCc2cc3c(cc2-4)OCO3)cc1 | 2.6 | 47.6 | 50 | 5300 | – | – | – | – | – | –
26 | COc1ccc2cc3[n+](cc2c1OCc1ccc(C(F)(F)F)cc1)CCc1cc2c(cc1-3)OCO2.[Br-] | 1.3 | 27.4 | 21 | 5300 | – | – | 0.8 | 0.000456 | Active | –
27 | COc1ccc2cc3[n+](cc2c1OCc1cccc([N+](=O)[O-])c1)CCc1cc2c(cc1-3)OCO2.[Br-] | 1.45 | 24.7 | 30 | 5600 | – | – | 1.2 | – | – | –
28 | COc1ccc2cc3[n+](cc2c1OCc1ccc([N+](=O)[O-])cc1)CCc1cc2c(cc1-3)OCO2.[Br-] | 0.99 | 21.2 | – | 5000 | – | – | 1.4 | – | – | Nd(Insoluble)
29 | COc1ccc2cc3[n+](cc2c1OCc1ccc(Cl)c(Cl)c1)CCc1cc2c(cc1-3)OCO2 | 1.22 | 52.7 | 9 | > 6000 | – | – | – | – | – | –
